US20260103465A1, “GLYCOGEN SYNTHASE KINASE 3 INHIBITORS AND USES THEREOF” (The Broad Institute, Inc., priority 2023, published 2026)
Read-outs that look alike come from different tables or passages of the source.

How the values were obtained:
[1] = target: T1, GSK3a (GST-full length GSK3a) (Homo sapiens, UniProt P49840); assay: GSK3a TR-FRET kinase inhibition assay; format: biochemical
T1 construct: GST-full length GSK3a [SignalChem G08-10G]; purchased SignalChem G08-10G
Method: (§1) TR-FRET assay was performed in a white, 384 well, low volume, flat bottom plate (Grenier). After a 30 minute preincubation in assay buffer with the indicated concentration of compound, the kinase activity was initiated by the addition of the substrates. 1 nM GSK3a (GST-full length GSK3a [SignalChem G08-10G]) or 1 nM GSK3b (GST-full length GSK3b: [SignalChem G08-9G]) were then incubated at ambient temperature for 100 minutes in 10 μl of 50 mM Tris, pH 7.5, 20 mM MgCl2, 0.05 mM DTT, 100 μg/ml BSA and 1% DMSO, with 200 nM biotinylated peptide substrate (biotinylated and S645 phosphorylated glycogen synthase 631-650) and ATP (e.g., at 2 μM, 4 μM, 10 μM, 100 μM, or 1 mM). The kinase activity was quenched with 2 μl of 250 mM EDTA. A 10 μl volume of 40 nM Strepavidin-d2, 2 nM […] antibody in TR-FRET Detection Buffer (Invitrogen) was then added. After 60 min at room temperature the plate was read on Envision plate reader using Ex: 340 nm, Em: 615 nm and […]. The normalized 665/615 Signal ratio versus log compound concentration was analyzed by XLFIT to yield IC50 values.

[2] = target: T2, GSK3b (GST-full length GSK3b) (Homo sapiens, UniProt P49841); assay: GSK3b TR-FRET kinase inhibition assay; format: biochemical
T2 construct: GST-full length GSK3b: [SignalChem G08-9G]; purchased SignalChem G08-9G
Method: as §1

[3] = 1 mM ATP, Table 5, read-out: GSK3α TR-FRET 1 mM ATP Average IC50
[4] = 1 mM ATP, Table 5, read-out: GSK3β TR-FRET 1 mM ATP Average IC50
[5] = 100 μM ATP, read-out: GSK3a 100 μM ATP Average IC50
[6] = 100 μM ATP, read-out: GSK3b 100 μM ATP Average IC50

T2 sequence (P49841 whole entry): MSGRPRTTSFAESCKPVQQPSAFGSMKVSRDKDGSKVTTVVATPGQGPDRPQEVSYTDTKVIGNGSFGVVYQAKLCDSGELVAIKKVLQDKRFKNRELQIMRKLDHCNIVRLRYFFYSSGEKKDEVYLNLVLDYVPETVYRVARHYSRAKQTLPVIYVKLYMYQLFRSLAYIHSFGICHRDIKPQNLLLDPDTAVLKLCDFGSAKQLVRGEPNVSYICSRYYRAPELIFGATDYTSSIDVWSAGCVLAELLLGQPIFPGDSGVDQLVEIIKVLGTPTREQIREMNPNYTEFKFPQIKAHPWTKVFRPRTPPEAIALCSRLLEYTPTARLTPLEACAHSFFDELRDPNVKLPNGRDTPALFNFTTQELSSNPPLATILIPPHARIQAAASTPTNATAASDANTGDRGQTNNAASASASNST
T1 sequence (P49840 whole entry): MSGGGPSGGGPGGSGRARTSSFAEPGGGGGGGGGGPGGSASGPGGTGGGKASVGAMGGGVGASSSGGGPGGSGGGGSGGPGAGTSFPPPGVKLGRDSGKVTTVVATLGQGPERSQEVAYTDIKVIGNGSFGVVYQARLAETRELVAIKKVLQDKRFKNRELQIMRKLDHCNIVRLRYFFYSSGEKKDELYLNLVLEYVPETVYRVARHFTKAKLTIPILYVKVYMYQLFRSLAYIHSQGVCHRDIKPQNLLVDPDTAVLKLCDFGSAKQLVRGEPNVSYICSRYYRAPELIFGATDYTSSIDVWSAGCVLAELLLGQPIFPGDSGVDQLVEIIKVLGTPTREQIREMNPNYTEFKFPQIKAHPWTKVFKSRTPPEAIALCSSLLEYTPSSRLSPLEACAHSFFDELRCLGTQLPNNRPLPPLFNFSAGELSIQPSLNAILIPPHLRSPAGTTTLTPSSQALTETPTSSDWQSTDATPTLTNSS

SMILES | IC50 [1, 3] [µM] | IC50 [2, 4] [nM] | other results
CC1(C)CC(=O)C2=C(C1)Nc1ncc(C(C)(F)F)c(C#N)c1C2(C)c1ccccc1 (single isomer, unassigned) [631A] | 5 to 20 | 5000 to 20000 | –
CC1(C)CC(=O)C2=C(C1)Nc1ncc(C(C)(F)F)c(C#N)c1C2(C)c1ccccc1 (single isomer, unassigned) [631B] | 5 to 20 | 5000 to 20000 | –
CC1(C)CC(=O)C2=C(C1)Nc1ncc(F)c(C#N)c1C2(C)c1cccc(C(F)F)c1 (single isomer, unassigned) [634A] | 5 to 20 | 5000 to 20000 | –
CC1(C)CC(=O)C2=C(C1)Nc1ncc(C3CCCC3)c(C#N)c1C2(C)c1ccccc1 (single isomer, unassigned) [635A] | 5 to 20 | 5000 to 20000 | –
C=Cc1c(C(F)(F)F)cnc2c1C(C)(c1ccccc1)C1=C(CC(C)(C)CC1=O)N2 (single isomer, unassigned) [636B] | 5 to 20 | 1000 to 5000 | –
CC1(C)CC2=C(C(=O)N1)C(C)(c1cccc(S(C)(=O)=O)c1)c1cc(F)cnc1N2 (single isomer, unassigned) [638B] | 5 to 20 | 5000 to 20000 | –
CC(C)Oc1cccc(C2(C)C3=C(CC(C)(C)CC3=O)Nc3ncc(F)c(C#N)c32)c1 (single isomer, unassigned) [639A] | 5 to 20 | 5000 to 20000 | –
C=Cc1cnc2c(c1Br)C(C)(c1ccccc1)C1=C(CC(C)(C)CC1=O)N2 (single isomer, unassigned) [640B] | 5 to 20 | 5000 to 20000 | –
CC1(C)CC(=O)C2=C(C1)Nc1ncc(C(F)(F)F)c(C3CC3)c1C2(C)c1ccccc1 (single isomer, unassigned) [642A] | 5 to 20 | 1000 to 5000 | –
CC1(C)CC(=O)C2=C(C1)Nc1ncc(C(F)(F)F)c(C3CC3)c1C2(C)c1ccccc1 (single isomer, unassigned) [642B] | 5 to 20 | 5000 to 20000 | –
CC(C)Oc1cccc(C2(C)C3=C(CC(C)(C)CC3=O)Nc3ncc4c(cnn4C)c32)c1 (single isomer, unassigned) [645A] | 5 to 20 | 5000 to 20000 | –
CC(C)Oc1cccc(C2(C)C3=C(CC(C)(C)CC3=O)Nc3ncc4c(cnn4C)c32)c1 (single isomer, unassigned) [645B] | 5 to 20 | 1000 to 5000 | –
CC1(C)CC(=O)C2=C(C1)Nc1ncc(C(F)(F)F)cc1C2(C)c1cccc(C(F)F)c1 (single isomer, unassigned) [646A] | 5 to 20 | 5000 to 20000 | –
CC1(C)CC2=C(C(=O)N1)C(C)(c1cccc(S(C)(=O)=O)c1)c1cc(C3CC3)cnc1N2 (single isomer, unassigned) [647B] | 5 to 20 | 5000 to 20000 | –
CC(C)Oc1cccc(C2(C)C3=C(CC(C)(C)CC3=O)Nc3ncc(C(F)(F)F)cc32)c1 (single isomer, unassigned) [648A] | 5 to 20 | 1000 to 5000 | –
Cn1ncc2c3c(ncc21)NC1=C(C(=O)CC(C)(C)C1)C3(C)c1cccc(S(C)(=O)=O)c1 (single isomer, unassigned) [649A] | 5 to 20 | 1000 to 5000 | –
Cn1ncc2c3c(ncc21)NC1=C(C(=O)CC(C)(C)C1)C3(C)c1cccc(S(C)(=O)=O)c1 (single isomer, unassigned) [649B] | 5 to 20 | 5000 to 20000 | –
CC(C)Oc1cccc(C2(C)C3=C(CC(C)(C)CC3=O)Nc3ncc(C(F)F)c(C#N)c32)c1 (single isomer, unassigned) [650A] | 5 to 20 | 1000 to 5000 | –
CC1(C)CC(=O)C2=C(C1)Nc1ncccc1C2(C)c1cccc(N(CC2CC2)c2ncccn2)c1 (single isomer, unassigned) [652A] | 5 to 20 | 5000 to 20000 | –
CC1(C)CC(=O)C2=C(C1)Nc1ncc(F)cc1C2(C)c1cccc(-c2ccncc2CC(F)(F)F)c1 (single isomer, unassigned) [653A] | 1 to 5 | 1000 to 5000 | –
CC1(C)CC(=O)C2=C(C1)Nc1ncc(I)c(Br)c1C2(C)c1ccccc1 (single isomer, unassigned) [657A] | 5 to 20 | 5000 to 20000 | –
CC1(C)CC(=O)C2=C(C1)Nc1ncc(I)c(Br)c1C2(C)c1ccccc1 (single isomer, unassigned) [657B] | 5 to 20 | 1000 to 5000 | –
CC1(C)CC(=O)C2=C(C1)Nc1ncccc1C2(C)c1ccccc1 (single isomer, unassigned) [Compound 101B] | – | – | IC50 ([1]; 10 μM ATP, read-out: GSK3a 10 μM ATP Average IC50): 5 to 20 µM; IC50 [1, 5]: 20 to 60 µM; IC50 ([2]; 10 μM ATP, read-out: GSK3b 10 μM ATP Average IC50): 1000 to 5000 nM; IC50 [2, 6]: 20000 to 60000 nM
Cc1ccnc2c1C(C)(c1ccccc1)C1=C(CC(C)(C)CC1=O)N2 (single isomer, unassigned) [Compound 104A] | – | – | IC50 [1, 5]: ≤ 0.1 µM; IC50 ([1]; 1 mM ATP, Table 3, read-out: GSK3a TR-FRET 1 mM ATP Average IC50): 1 to 5 µM; IC50 [2, 6]: 100 to 1000 nM; IC50 ([2]; 1 mM ATP, Table 3, read-out: GSK3b TR-FRET 1 mM ATP Average IC50): 1000 to 5000 nM

Continued, in another order:

IC50 [1, 3] [µM] | IC50 [2, 4] [nM] | SMILES | other results
0.1 to 1 | 100 to 1000 | CC(C)Oc1cccc(C2(C)C3=C(CC(C)(C)CC3=O)Nc3ncc(F)cc32)c1 (single isomer, unassigned) [629B] | –
≤ 0.1 | 100 to 1000 | CC1(C)CC2=C(C(=O)N1)C(C)(c1cccc(S(C)(=O)=O)c1)c1cccnc1N2 (single isomer, unassigned) [630A] | –
1 to 5 | 100 to 1000 | CN1C(=O)C2=C(CC1(C)C)Nc1ncc(C(F)F)c(C#N)c1C2(C)c1ccccc1 (single isomer, unassigned) [632A] | –
0.1 to 1 | 100 to 1000 | CN1C(=O)C2=C(CC1(C)C)Nc1ncc(C(F)F)c(C#N)c1C2(C)c1ccccc1 (single isomer, unassigned) [632B] | –
≤ 0.1 | ≤ 100 | CC1(C)CC(=O)C2=C(C1)Nc1ncc(F)c(C#N)c1C2(C)c1cccc(C(F)F)c1 (single isomer, unassigned) [634B] | –
1 to 5 | 100 to 1000 | C=Cc1c(C(F)(F)F)cnc2c1C(C)(c1ccccc1)C1=C(CC(C)(C)CC1=O)N2 (single isomer, unassigned) [636A] | –
≤ 0.1 | 100 to 1000 | CC1(C)CC2=C(C(=O)N1)C(C)(c1cccc(S(C)(=O)=O)c1)c1cc(F)cnc1N2 (single isomer, unassigned) [638A] | –
≤ 0.1 | ≤ 100 | CC(C)Oc1cccc(C2(C)C3=C(CC(C)(C)CC3=O)Nc3ncc(F)c(C#N)c32)c1 (single isomer, unassigned) [639B] | –
1 to 5 | 1000 to 5000 | CN(c1cccc(C2(C)C3=C(CC(C)(C)CC3=O)Nc3ncccc32)c1)c1ncccn1 (single isomer, unassigned) [641B] | –
0.1 to 1 | 100 to 1000 | Cc1c(C2(C)C3=C(CC(C)(C)CC3=O)Nc3ncc(F)cc32)cccc1S(C)(=O)=O (single isomer, unassigned) [643A] | –
0.1 to 1 | 100 to 1000 | Cc1ccc(C2(C)C3=C(CC(C)(C)CC3=O)Nc3ncc(F)cc32)cc1S(C)(=O)=O (single isomer, unassigned) [644A] | –
1 to 5 | 100 to 1000 | CC1(C)CC(=O)C2=C(C1)Nc1ncc(C(F)(F)F)cc1C2(C)c1cccc(C(F)F)c1 (single isomer, unassigned) [646B] | –
0.1 to 1 | 100 to 1000 | CC1(C)CC2=C(C(=O)N1)C(C)(c1cccc(S(C)(=O)=O)c1)c1cc(C3CC3)cnc1N2 (single isomer, unassigned) [647A] | –
1 to 5 | 100 to 1000 | CC(C)Oc1cccc(C2(C)C3=C(CC(C)(C)CC3=O)Nc3ncc(C(F)(F)F)cc32)c1 (single isomer, unassigned) [648B] | –
0.1 to 1 | 100 to 1000 | CC(C)Oc1cccc(C2(C)C3=C(CC(C)(C)CC3=O)Nc3ncc(C(F)F)c(C#N)c32)c1 (single isomer, unassigned) [650B] | –
0.1 to 1 | 100 to 1000 | CC1(C)CC2=C(C(=O)N1)C(C)(c1cccc(S(C)(=O)=O)c1)c1cc(C(F)(F)F)cnc1N2 (single isomer, unassigned) [651B] | –
≤ 0.1 | 5000 to 20000 | CC1(C)CC(=O)C2=C(C1)Nc1ncccc1C2(C)c1cccc(N(CC2CC2)c2ncccn2)c1 (single isomer, unassigned) [652B] | –
≤ 0.1 | ≤ 100 | CC1(C)CC(=O)C2=C(C1)Nc1ncc(F)cc1C2(C)c1cccc(-c2ccncc2CC(F)(F)F)c1 (single isomer, unassigned) [653B] | –
0.1 to 1 | 100 to 1000 | CC1(C)CC(=O)C2=C(C1)Nc1ncc(F)c(C#N)c1C2(C)c1cccc(-c2ccncc2CC(F)(F)F)c1 (single isomer, unassigned) [656A] | –
≤ 0.1 | ≤ 100 | CC1(C)CC(=O)C2=C(C1)Nc1ncc(F)c(C#N)c1C2(C)c1cccc(-c2ccncc2CC(F)(F)F)c1 (single isomer, unassigned) [656B] | –
